One assay concerns H-2K^b on RMA/S cells. It counts as cell-based, murine.
Assay [1] relates to PPRV-peptide specific CD8+ T cells. Also noted: species or system mouse (WT C57BL/6). To be noted: mouse, in vivo.
The next assay concerns the target H-2K^b monomers (Mus musculus, UniProt P01901). The format is binding.
The subject of assay [2] is peptide specific CD8+ T cells. The arrangement: species or system mouse (C57BL/6). As to conditions: mouse, in vivo.

Sequence of H-2K^b monomers (P01901 whole entry, looked up): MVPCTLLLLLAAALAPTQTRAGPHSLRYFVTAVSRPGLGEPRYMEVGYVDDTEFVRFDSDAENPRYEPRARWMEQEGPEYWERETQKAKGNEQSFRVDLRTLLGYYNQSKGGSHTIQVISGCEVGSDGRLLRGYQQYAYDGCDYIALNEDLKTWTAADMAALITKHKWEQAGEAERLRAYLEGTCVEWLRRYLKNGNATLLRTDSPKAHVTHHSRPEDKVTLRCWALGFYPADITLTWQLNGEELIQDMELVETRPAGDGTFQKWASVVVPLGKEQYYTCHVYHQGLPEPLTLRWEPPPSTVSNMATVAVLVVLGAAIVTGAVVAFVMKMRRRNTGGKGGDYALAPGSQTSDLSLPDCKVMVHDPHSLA

Regarding FMYLFLLGV, the “stabilization of surface H-2K^b” value with H-2K^b on RMA/S cells is listed as “greater levels than the other peptides”. Besides, the “tetramer positive CD8+ T cells, frequencies and numbers vs control” value (shortened to “tetramer positive CD8+ T cells … vs control”) in assay [1] is recorded as “not significantly different from the control animals”.

As for IEHIFESPL, the “fold change values of H-2K^b monomer stabilization vs control peptide SIINFEKL” value (shortened to “fold change values”) on H-2K^b monomers is “higher values as compared to other peptides”.

With IGLVRDFGL, the “fold change values” value on H-2K^b monomers is recorded as “higher values as compared to other peptides”. Further, in the assay on H-2K^b on RMA/S cells, the “stabilization of surface H-2K^b” value is “greater levels than the other peptides”. Also, the “tetramer positive CD8+ T cells … vs control” value in assay [1] is “significantly higher frequencies and numbers”. Also, the “magnitude of tetramer positive CD8+ T cells” value in assay [2] is recorded as “higher”.

As for SSITTRSRL, on H-2K^b monomers, the “fold change values” value is “higher values as compared to other peptides”.

Take VILDRERLV: at H-2K^b monomers, the “fold change values” value was “higher values as compared to other peptides”.

Consider IVVRRTAGV, for which the “fold change values” value on H-2K^b monomers was “higher values as compared to other peptides”.

For the sequence VAFNILVTL, the “fold change values” value at H-2K^b monomers is reported as “higher values as compared to other peptides”.

As for FSAGAYPLL, the “fold change values” value at H-2K^b monomers is reported as “higher values as compared to other peptides”. Besides, the “stabilization of surface H-2K^b” value in the assay with H-2K^b on RMA/S cells is “greater levels than the other peptides”. Further, the “tetramer positive CD8+ T cells … vs control” value in assay [1] is “significantly higher frequencies and numbers”. Moreover, in assay [2], the “magnitude of tetramer positive CD8+ T cells” value is on record as “higher”.

(Values after paper PMC8072281 (Frontiers in Immunology, 2021).)
